Test [1] deals with zymostenol accumulation (EBP) in EpiSC-derived OPCs. The test is described as follows: GC/MS-based sterol profiling, zymostenol accumulation in EpiSC-derived OPCs. The format is cell-based, mouse. The note with it: Mus musculus, 24 h, EpiSC-derived OPCs, 24 hr, 8 doses from 0.15 nM to 333 nM; read-out: Mouse Zymostenol GCMS EC50. As for the experimental part: To assess effects of treatments on OPCs, all treatments were assayed in two or more independent platings of epiblast stem cell-derived OPCs (EpiSC). EpiSC-derived OPCs were obtained using in vitro differentiation protocols and culture conditions described previously (Najm et al, 2011, Nature Methods). OPCs were expanded and frozen down in aliquots. OPCs were thawed into growth conditions for at least one passage before use in further assays.
Sterols were monitored using a modified Folch wash protocol (Hubler et al, 2018, Nature). EpiSC-derived OPCs were plated at 100,000 cells per well in PO- and laminin-coated 96-well plates in N2B27 media without growth factors. After 24 hours, cells were rinsed with saline and plates were frozen. Cholesterol-d7 standard was then added to each well before drying under nitrogen stream and derivatization with 55 μl of bis(trimethylsilyl) trifluoroacetamide. After derivatization, 2 μl were analyzed by gas chromatography/mass spectrometry using an Agilent 5973 Network Mass Selective Detector equipped with a 6890 gas chromatograph system and a HP-5MS capillary column (30 m×0.25 mm×[…]). Samples were analyzed in full scan mode using electron impact ionization; ion fragment peaks were integrated to calculate sterol abundance, and quantitation was relative to cholesterol-d7. The following ion fragments were used to quantitate each metabolite: cholesterol-d7 (465), FF-Mas (482), cholesterol (368), zymostenol (458), zymosterol (456), Desmosterol (456, 343), 7-dehydrocholesterol (456, 325), lanosterol (393), lathosterol (458), 14-dehydrozymostenol (456, 351). […] All standards were obtained from Avanti Polar Lipids unless otherwise indicated. Calibration curves were generated by injecting varying concentrations of sterol standards and maintaining a fixed amount of cholesterol-D7. For normalized zymostenol accumulation results, the total amount of zymostenol measured after drug treatment was divided by the total amount of zymostenol accumulated after 24 hr treatment with 100 nM positive control reference.

Test [2] deals with human emopamil binding protein and human 7-dehydrocholesterol reductase (hEBP-DHCR7) (Homo sapiens (Human), UniProt Q15125). The test is described as follows: hEBP-DHCR7 radioligand binding assay (filter binding, membranes of co-expressing HEK293 cells). Particulars: competition with [3H] radioligand, 8 doses 0.06 to 5000 nM, Ki calculated from IC50. The method, then: Membrane Preparation: human emopamil binding protein and human 7-dehydrocholesterol reductase co-expressing cells were generated by transient transfecting host human embryonic kidney (HEK) 293 cells with 2 DNA constructs containing each protein's coding sequence. Cells were suspension cultured at 37° C. with 5% CO2 in […] 293 Expression Medium (Thermofisher). Whole cell membrane was prepared by harvesting the cell pellet, adding cold membrane buffer (50 mM Tris, pH7.5, 1× Roche COMPLETE EDTA-free protease inhibitor cocktail) 10 times volume of the cell pellets weight, lysing cell pellet on ice by using Dounce homogenizer, spinning at 200 g 4° C. for 15 min, collecting supernatant and spinning again at 25000 g 4° C. for 50 min, transferring pellet to Dounce homogenizer, re-suspending pellet by homogenizing in membrane buffer on ice to reach ˜25 mg/mL, then keeping whole cell membrane aliquots at −80° C.
human emopamil binding protein and human 7-dehydrocholesterol reductase (hEBP-DHCR7), sequence (Q15125 whole entry): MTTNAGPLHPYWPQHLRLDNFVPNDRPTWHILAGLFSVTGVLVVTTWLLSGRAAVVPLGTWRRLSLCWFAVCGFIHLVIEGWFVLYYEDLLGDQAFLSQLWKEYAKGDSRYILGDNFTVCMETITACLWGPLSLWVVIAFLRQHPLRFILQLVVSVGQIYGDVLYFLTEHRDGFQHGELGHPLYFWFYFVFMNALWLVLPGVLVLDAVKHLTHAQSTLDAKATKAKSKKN
Compounds were prepared in a 96-well U bottom plate (Corning Cat #7007) using an Echo550 machine and 10 mM compound DMSO stock solution, followed by an 8-dose 5-fold serial dilutions protocol with final testing compound concentration ranging from 0.06 to 5000 nM, with DMSO back fill to 100 nL/well and n=2. […] The UniFilter-96 GF/B plates (PerkinElmer Cat #6005177) were pre-treated by adding 50 μl/well of 0.3% (v/v) Polyethylenimine (PEI) (branched, Sigma Cat #408727) to UniFilter-96 GF/B plates. The plates were sealed and incubated at 4° C. for 3 hrs. Then, the plates were washed with ice-cold assay buffer 3 times. The radioligand binding assay was prepared by adding assay buffer diluted hEBP-DHCR7 membrane at 66.7 µg/ml×150 μl/well into the 96-well compound plate to reach 10 μg membrane per well. Then, the assay buffer diluted [3H]—(S)-6-(2-Methyl-3-(6-(trifluoromethyl)pyridin-3-yl)propyl)-2-thia-6-azaspiro[3.4]octane 2,2-dioxide (Moravek, Cat #MT-1003106) was added at 25 nM×50 μl/well. Following this, the plate was centrifuged at 1000 rpm for 30 secs. The plate was then sealed and agitated at 600 rpm at 22° C. for 5 min, and then incubated at 22° C. for 3 hrs. The incubation was stopped by transferring the binding solution to the pre-treated UniFilter-96 GF/B plate, vacuum filtrated, and then washed four times with ice-cold assay buffer. Following this, the plates were dried at 37° C. for 45 min. The plates were then sealed at the bottom. 40 µl/well of scintillation cocktail was added to the plates. A MicroBeta2 microplate counter was then used to read the plate and analyze the data. For reference and test compounds, the results are expressed as % Inhibition, using the normalization equation: N=100−100×(U−C2)/(C1−C2), where U is the unknown value, C1 is the average of high controls, and C2 is the average value of low controls.

In general, EC50 refers to the concentration needed to bring the measured effect to its halfway point. One may read the Ki as the equilibrium dissociation constant of an inhibitor or competing ligand from its target.

As for `CC(C)n1nc([C@H]2CC[C@H](C(F)(F)F)CC2)nc1[C@H]1[C@@H]2C[C@H](N3CCOC[C@H]3C)C[C@@H]21` (single isomer, unassigned) [Compound 164*], in test [1], the EC50 was 0.143 µM. For the same molecule, the Ki in test [2] was 1.64 µM.

In the case of `CC(C)n1nc(-c2cnc(C(F)(F)F)nc2)cc1[C@H]1[C@@H]2C[C@@H](N3CCOC[C@H]3C)C[C@@H]21` [Compound 96, (R)-4-((1R,3s,5S,6R)-6-(1-Isopropyl-3-(2-(trifluoromethyl)pyrimidin-5-yl)-1H-pyrazol-5-yl)bicyclo[3.1.0]hexan-3-yl)-3-methylmorpholine], in test [1], the concentration giving a half-maximal response (EC50) worked out at 0.928 µM. Further, the Ki in test [2] is 0.631 µM.

Turning to `CC(C)n1nc(-c2cnc(F)c(C(F)(F)F)c2)nc1[C@H]1CC[C@H](N2CCOCC2)C1` (single isomer, unassigned) [Compound 159*], the EC50 in test [1] amounted to 0.00425 µM. Besides, the Ki in test [2] was 0.0122 µM.

As for `CC(C)n1nc(-c2ccc(C(F)(F)F)nc2)nc1[C@@H]1CC[C@@H](N2CCCOCC2)C1` [Compound 3, 4-((1R,3R)-3-(1-isopropyl-3-(6-(trifluoromethyl)pyridin-3-yl)-1H-1,2,4-triazol-5-yl)cyclopentyl)-1,4-oxazepane], the EC50 in test [1] was found to be 0.0395 µM. Also, the inhibitory constant (Ki) in test [2] was 0.0324 µM.

In the case of `CC(C)n1nc(-c2cncc(C(F)(F)F)c2)cc1[C@H]1CC[C@@H](N2CCCOCC2)C1` (single isomer, unassigned) [64*], the 50% effective concentration (EC50) in test [1] turned out to be 0.00275 µM. Also, the Ki in test [2] was 0.0156 µM.

On to `CC[C@H]1CN([C@@H]2CC[C@@H](c3nc(-c4cnc(C(F)(F)F)nc4)nn3C(C)C)C2)CCO1` [Compound 155, (S)-2-Ethyl-4-((1R,3R)-3-(1-isopropyl-3-(2-(trifluoromethyl)pyrimidin-5-yl)-1H-1,2,4-triazol-5-yl)cyclopentyl) morpholine], for which the EC50 in test [1] was found to be 0.305 µM. The Ki in test [2] was 0.465 µM.

For the molecule `COCCN1CCN([C@H]2CC[C@H](c3cc(-c4ccc(C(F)(F)F)nc4)nn3C(C)C)C2)CC1` (single isomer, unassigned) [92*], the EC50 in test [1] is 0.252 µM. Besides, the Ki in test [2] was 0.0776 µM.

Turning to `CC[C@@H]1CN([C@@H]2CC[C@H](c3nc(-c4cncc(F)c4)nn3C(C)C)C2)CCO1` [Compound 124, (R)-2-Ethyl-4-((1R,3S)-3-(3-(5-fluoropyridin-3-yl)-1-isopropyl-1H-1,2,4-triazol-5-yl)cyclopentyl)morpholine], the EC50 in test [1] was determined as 0.376 µM. The Ki in test [2] is 2.4 µM.

With `CC(C)n1nc(-c2cncc(C(F)(F)F)c2)cc1[C@H]1[C@@H]2CC(N3CCOC[C@@H]3C)C[C@@H]21` (single isomer, unassigned) [43*], the EC50 in test [1] was 0.243 µM. Further, the Ki in test [2] was 0.065 µM.

Regarding `CC(C)n1nc(-c2cncc(C(F)(F)F)c2)nc1[C@H]1CC[C@H](N2CCOCC2)C1` (single isomer, unassigned) [Compound 116*], the EC50 in test [1] is 0.049 µM. The Ki in test [2] is 0.169 µM.

With `CC(C)n1nc(-c2cccc(OC(F)F)c2)nc1[C@H]1[C@@H]2C[C@H](N3CCCOCC3)C[C@@H]21` [Compound 75, 4-((1R,3r,5S,6r)-6-(3-(3-(Difluoromethoxy)phenyl)-1-isopropyl-1H-1,2,4-triazol-5-yl)bicyclo[3.1.0]hexan-3-yl)-1,4-oxazepane], in test [1], the EC50 came out at 0.00283 µM. Further, the Ki in test [2] was 0.012 µM.

With `CC(C)n1nc(-c2cccc(OC(F)F)c2)nc1[C@H]1[C@@H]2C[C@@H](N3CCCOCC3)C[C@@H]21` [Compound 74, 4-((1R,3s,5S,6r)-6-(3-(3-(Difluoromethoxy)phenyl)-1-isopropyl-1H-1,2,4-triazol-5-yl)bicyclo[3.1.0]hexan-3-yl)-1,4-oxazepane], the EC50 in test [1] is 0.168 µM. In test [2], the Ki is 0.037 µM.

Take `CC[C@H]1CN([C@H]2CC[C@@H](c3nc(-c4cnc(C(F)(F)F)nc4)nn3C(C)C)C2)CCO1` [Compound 154, (S)-2-Ethyl-4-((1S,3R)-3-(1-isopropyl-3-(2-(trifluoromethyl)pyrimidin-5-yl)-1H-1,2,4-triazol-5-yl)cyclopentyl)morpholine]: the EC50 in test [1] turned out to be 0.221 µM. The Ki in test [2] is 0.465 µM.

Consider `CC(C)n1nc(-c2cnc(C(F)(F)F)nc2)cc1[C@H]1CC[C@H](N2CCO[C@H](CF)C2)C1` (single isomer, unassigned) [Compound 132*], for which the EC50 in test [1] came to 0.352 µM. The Ki in test [2] is 0.088 µM.

As for `CC(C)n1nc(-c2cncc(C(F)(F)F)c2)nc1[C@@H]1CC[C@@H](N2CCOCC2)C1` (single isomer, unassigned) [Compound 115*], in test [1], the EC50 was 0.0972 µM. In addition, the Ki in test [2] is 0.035 µM.

For `CC(C)n1nc(-c2cnc(C(F)(F)F)nc2)cc1[C@H]1CC[C@H](N2CCO[C@@H](CF)C2)C1` (single isomer, unassigned) [Compound 130*], the EC50 in test [1] came out at 0.619 µM. The Ki in test [2] was 0.392 µM.

`CC(C)n1nc(-c2cnc(C(F)(F)F)nc2)cc1[C@H]1CC[C@@H](N2CCO[C@@H](CF)C2)C1` (single isomer, unassigned) [Compound 131*]: the concentration for a half-maximal effect (EC50) in test [1] was 0.168 µM. In addition, the Ki in test [2] is 0.106 µM.

As for `CC[C@H]1CN([C@@H]2CC[C@H](c3nc(-c4cncc(F)c4)nn3C(C)C)C2)CCO1` [Compound 123, (S)-2-Ethyl-4-((1R,3S)-3-(3-(5-fluoropyridin-3-yl)-1-isopropyl-1H-1,2,4-triazol-5-yl)cyclopentyl)morpholine], the EC50 in test [1] is 0.0106 µM. In test [2], the Ki was 0.0404 µM.

For the molecule `COCCN1CCN([C@@H]2CC[C@@H](c3cc(-c4ccc(C(F)(F)F)nc4)nn3C(C)C)C2)CC1` (single isomer, unassigned) [90*], the EC50 in test [1] came out at 0.0337 µM. Further, in test [2], the Ki is 0.011 µM.

Regarding `CC(C)n1nc(-c2cncc(C(F)(F)F)n2)cc1[C@H]1[C@@H]2C[C@H](N3CCOCC3)C[C@@H]21` [Compound 108, 4-((1R,3r,5S,6r)-6-(1-Isopropyl-3-(6-(trifluoromethyl)pyrazin-2-yl)-1H-pyrazol-5-yl)bicyclo[3.1.0]hexan-3-yl)morpholine], the EC50 in test [1] was determined as 0.062 µM. For the same molecule, the Ki in test [2] was 0.0878 µM.

As for `CC(C)n1nc(-c2ccnc(C(F)(F)F)n2)cc1[C@H]1[C@@H]2C[C@H](N3CCOCC3)C[C@@H]21` [Compound 99, 4-((1R,3r,5S,6r)-6-(1-Isopropyl-3-(2-(trifluoromethyl)pyrimidin-4-yl)-1H-pyrazol-5-yl)bicyclo[3.1.0]hexan-3-yl)morpholine], in test [1], the EC50 amounted to 0.062 µM. Also, the Ki in test [2] was 0.0878 µM.

`CC(C)n1nc(-c2cccc(C(F)(F)F)n2)cc1[C@H]1[C@@H]2C[C@@H](N3CCN(C4CCC4)CC3)C[C@@H]21` [Compound 84, 1-Cyclobutyl-4-((1R,3s,5S,6r)-6-(1-isopropyl-3-(6-(trifluoromethyl)pyridin-2-yl)-1H-pyrazol-5-yl)bicyclo[3.1.0]hexan-3-yl)piperazine]: the EC50 in test [1] came to 0.00349 µM. For the same molecule, the Ki in test [2] was 0.0278 µM.

These data come from US20260008775A1, “AZOLE MODULATORS OF CHOLESTEROL BIOSYNTHESIS AND THEIR USE FOR PROMOTING REMYELINATION” (GENENTECH, INC., priority 2022, published 2026).
